Assay results: article PMC6257796, “Effects of Eupatilin and Jaceosidin on Cytochrome P450 Enzyme Activities in Human Liver Microsomes” (Molecules, 2010)

Tests used:
Format in all cases: in vitro ADME
CYP1A2 [1] = target: T1, CYP1A2 (Homo sapiens, UniProt P05177); assay: Cocktail probe assay in pooled human liver microsomes: phenacetin O-deethylation (IC50); details: 50 μM phenacetin
T1 construct: pooled human liver microsomes (0.25 mg/mL); tissue BD Gentest Co. H161; host or cells: pooled human liver microsomes
T1 sequence (P05177 1-516): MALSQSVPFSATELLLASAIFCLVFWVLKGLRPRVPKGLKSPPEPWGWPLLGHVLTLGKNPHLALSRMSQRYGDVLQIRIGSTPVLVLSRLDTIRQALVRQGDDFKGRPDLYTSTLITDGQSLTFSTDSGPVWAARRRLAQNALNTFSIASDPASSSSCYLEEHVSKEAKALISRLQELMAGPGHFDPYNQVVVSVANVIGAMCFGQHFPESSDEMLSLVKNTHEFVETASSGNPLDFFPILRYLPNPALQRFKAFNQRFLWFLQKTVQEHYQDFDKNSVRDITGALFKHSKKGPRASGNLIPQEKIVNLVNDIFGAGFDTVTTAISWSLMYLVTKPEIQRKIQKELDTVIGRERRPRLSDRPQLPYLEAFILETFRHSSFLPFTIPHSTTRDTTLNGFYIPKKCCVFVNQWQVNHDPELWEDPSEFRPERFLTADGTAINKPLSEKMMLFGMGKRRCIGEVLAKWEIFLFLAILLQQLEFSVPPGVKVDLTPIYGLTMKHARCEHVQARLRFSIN
Experimental: (§1) The inhibitory potencies (IC50 values) of eupatilin and jaceosidin were determined with CYP assays in the presence and absence of eupatilin and jaceosidin (final concentrations of 0.1−100 μM with acetonitrile concentration of less than 0.5% v/v) using pooled human liver microsomes. Phenacetin O-deethylase, coumarin 7-hydroxylase, amodiaquine N-deethylase, diclofenac hydroxylase, [S]-mephenytoin 4'-hydroxylase, bufuralol 1'-hydroxylase, and midazolam 1'-hydroxylase activities were determined as probe activities for CYP1A2, CYP2A6, CYP2C8, CYP2C9, CYP2C19, CYP2D6, and CYP3A, respectively, using cocktail incubation and tandem mass spectrometry. The incubation mixtures were prepared in a total volume of 200 μL as follows: pooled human liver microsomes (0.25 mg/mL), 1.3 mM NADPH, 3.3 mM MgCl2, 50 mM potassium phosphate buffer (pH 7.4), and a cocktail of probe substrates and various concentrations of eupatilin or jaceosidin (0.1−100 μM). […] After a 3 min preincubation at 37 °C, the reactions were initiated by adding NADPH and incubated for 20 min at 37 °C with shaking in a water bath. After incubation, the reaction was stopped by placing the tubes on ice and adding 100 μL of ice-cold acetonitrile containing internal standards (0.5 μg/mL [^13C,^15N]-acetaminophen for acetaminophen and N-desethylamodiaquine, 0.5 μg/mL [^2H5]-7-hydroxycoumarin for 7-hydroxycoumarin, 2.0 μg/mL [^13C6]-4-hydoxydiclofenac for 4-hydoxydiclofenac, 0.5 μg/mL [^2H3]-4'-hydoxymephenytoin for 4-hydoxymephenytoin and 1'-hydroxymidazolam, and 0.5 μg/mL [^2H7]-1'-hydroxybufuralol for 1'-hydroxybufuralol). The incubation mixtures were then centrifuged at 10,000× g for 5 min. All incubations were performedin triplicate.
(§2) To evaluate the effect of preincubation on inhibitory potency, eupatilin and jaceosidin (0.1−100 μM) were preincubated for 30 min with NADPH, buffer, and microsomes before the addition of the CYP probe substrates. The reaction was started by addition of the cocktail of probe substrates.
(§3) All seven metabolites produced from the cocktail of CYP isoform-specific substrates were simultaneously determined by LC/MS/MS. The system consisted of a tandem quadrupole mass spectrometer (TSQ Quantum Access, ThermoFisher Scientific, CA, USA) coupled with a Nanospace SI-2 LC system. The separation was performed on an Atlantis dC18 column (5 μm, 2.1 mm i.d. × 100 mm, Waters, Waltham, MA, USA) using the gradient elution of a mixture of 5% methanol in 0.1% formic acid (mobile phase A) and 95% methanol in 0.1% formic acid (mobile phase B) at a flow rate of 0.25 mL/min: 10% mobile phase B for 1 min, 10% to 95% mobile phase B for 1 min, 95% mobile phase B for 5 min. […] Quantification was performed by selected reaction monitoring (SRM) of the [M+H]^+ ion and the related product ion for each metabolite. […]

CYP2C9 [2] = target: T2, CYP2C9 (Homo sapiens, UniProt P11712); assay: Kinetic analysis (Ki, inhibition type) in human liver microsomes: diclofenac 4-hydroxylation; details: pooled human liver microsomes
T2 construct: pooled human liver microsomes (0.25 mg/mL); tissue BD Gentest Co. H161; host or cells: pooled human liver microsomes
Experimental: (§4) The Ki values and inhibition types (competitive, noncompetitive, uncompetitive, or mixed) were determined for eupatilin and jaceosidin using Lineweaver plots, Dixon plots, and secondary reciprocal plots.
(§5) The reactions were initiated by addition of NADPH at 37 °C and stopped after 15 min by placing the incubation tubes on ice and adding 100 μL of ice-cold methanol containing an internal standard. The incubation mixtures were centrifuged at 10,000' g for 5 min, and aliquots (5 μL) of the supernatants were analyzed by liquid chromatography/tandem mass spectrometry (LC/MS/MS).
(§6) All seven metabolites produced from the cocktail of CYP isoform-specific substrates were simultaneously determined by LC/MS/MS. The system consisted of a tandem quadrupole mass spectrometer (TSQ Quantum Access, ThermoFisher Scientific, CA, USA) coupled with a Nanospace SI-2 LC system. The separation was performed on an Atlantis dC18 column (5 μm, 2.1 mm i.d. × 100 mm, Waters, Waltham, MA, USA) using the gradient elution of a mixture of 5% methanol in 0.1% formic acid (mobile phase A) and 95% methanol in 0.1% formic acid (mobile phase B) at a flow rate of 0.25 mL/min: 10% mobile phase B for 1 min, 10% to 95% mobile phase B for 1 min, 95% mobile phase B for 5 min. The column and autosampler temperatures were 50 °C and 4 °C, respectively. After 1.5 min, the LC eluant was diverted from waste to the mass spectrometer that was fitted with an electrospray ionization (ESI) source and operated in the positive ion mode. The ESI source settings for the ionization of the metabolites were as follows: electrospray voltage, 5.0 kV; vaporizer temperature, 420 °C; capillary temperature 360 °C; sheath gas pressure, 35 psi; auxiliary gas pressure, 10 psi. Quantification was performed by selected reaction monitoring (SRM) of the [M+H]^+ ion and the related product ion for each metabolite. The analytical data were processed using Xcalibur® software (ThermoFisher Scientific).
(§7) The IC50 values (concentration of inhibitor causing 50% inhibition of the original enzyme activity) were calculated using WinNonlin software, a non-linear regression analysis program (Pharsight, Mountain View, CA, USA). The apparent kinetic parameters for inhibitory potential (Ki values) were estimated from the fitted curves using Enzyme Kinetics Ver. 1.3 program (Systat Software Inc., San Jose, CA, USA).

CYP2D6 [3] = target: T3, CYP2D6 (Homo sapiens, UniProt P10635); assay: Cocktail probe assay in pooled human liver microsomes: bufuralol 1'-hydroxylation (IC50); details: 5.0 μM bufuralol
T3 construct: pooled human liver microsomes (0.25 mg/mL); tissue BD Gentest Co. H161; host or cells: pooled human liver microsomes
Experimental: as §1, §2, §3

CYP2C9 [4] = target: T2, CYP2C9; assay: Cocktail probe assay in pooled human liver microsomes: diclofenac 4-hydroxylation (IC50); details: 10 μM diclofenac
Experimental: as §1, §2, §3

CYP2C19 [5] = target: T4, CYP2C19 (Homo sapiens, UniProt P33261); assay: Cocktail probe assay in pooled human liver microsomes: [S]-mephenytoin 4'-hydroxylation (IC50); details: 50 μM [S]-mephenytoin
T4 construct: pooled human liver microsomes (0.25 mg/mL); tissue BD Gentest Co. H161; host or cells: pooled human liver microsomes
Experimental: as §1, §2, §3

CYP2C8 [6] = target: T5, CYP2C8 (Homo sapiens, UniProt P10632); assay: Kinetic analysis (Ki, inhibition type) in human liver microsomes: amodiaquine N-deethylation; details: pooled human liver microsomes
T5 construct: pooled human liver microsomes (0.25 mg/mL); tissue BD Gentest Co. H161; host or cells: pooled human liver microsomes
T5 sequence (P10632 1-490): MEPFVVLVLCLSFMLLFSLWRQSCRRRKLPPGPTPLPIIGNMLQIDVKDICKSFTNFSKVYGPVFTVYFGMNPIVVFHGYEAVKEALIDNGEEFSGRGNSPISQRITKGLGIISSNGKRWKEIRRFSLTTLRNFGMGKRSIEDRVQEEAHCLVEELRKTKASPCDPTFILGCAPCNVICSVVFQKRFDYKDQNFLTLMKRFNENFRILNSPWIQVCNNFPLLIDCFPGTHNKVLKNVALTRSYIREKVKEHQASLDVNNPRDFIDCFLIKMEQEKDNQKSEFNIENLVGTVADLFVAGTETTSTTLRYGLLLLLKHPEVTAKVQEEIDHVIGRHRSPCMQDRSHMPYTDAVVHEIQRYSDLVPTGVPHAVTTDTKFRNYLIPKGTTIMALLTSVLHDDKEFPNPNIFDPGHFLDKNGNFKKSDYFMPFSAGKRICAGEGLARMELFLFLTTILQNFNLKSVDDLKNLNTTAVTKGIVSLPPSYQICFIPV
Experimental: as §4, §5, §6, §7

CYP1A2 [7] = target: T1, CYP1A2; assay: Kinetic analysis (Ki, inhibition type) in human liver microsomes: phenacetin O-deethylation; details: pooled human liver microsomes
Experimental: as §4, §5, §6, §7

CYP3A = assay: Cocktail probe assay in pooled human liver microsomes: midazolam 1'-hydroxylation (IC50); details: for IC50, midazolam 1'-hydroxylation (CYP3A): pooled human liver microsomes, 2.5 μM midazolam
Experimental: as §1, §2, §6, §7

CYP2C8 [8] = target: T5, CYP2C8; assay: Cocktail probe assay in pooled human liver microsomes: amodiaquine N-deethylation (IC50); details: 2.0 μM amodiaquine, no preincubation
Experimental: as §1, with “After incubation, the reaction was stopped by placing the tubes on ice and adding 100 μL of ice-cold acetonitrile containing internal standards (0.5 μg/mL [^13C,^15N]-acetaminophen for acetaminophen and N-desethylamodiaquine, 0.5 μg/mL [^2H5]-7-hydroxycoumarin for 7-hydroxycoumarin, 2.0 μg/mL [^13C6]-4-hydoxydiclofenac for 4-hydoxydiclofenac, 0.5 μg/mL [^2H3]-4'-hydoxymephenytoin for 4-hydoxymephenytoin and 1'-hydroxymidazolam, and 0.5 μg/mL [^2H7]-1'-hydroxybufuralol for 1'-hydroxybufuralol). The incubation mixtures were then centrifuged at 10,000× g for 5 min. All incubations were performedin triplicate.” left out
All seven metabolites produced from the cocktail of CYP isoform-specific substrates were simultaneously determined by LC/MS/MS. […] Quantification was performed by selected reaction monitoring (SRM) of the [M+H]^+ ion and the related product ion for each metabolite. […]

CYP2C19 [9] = target: T4, CYP2C19; assay: Kinetic analysis (Ki, inhibition type) in human liver microsomes: [S]-mephenytoin 4'-hydroxylation; details: pooled human liver microsomes; for Inhibition type, S-mephenytoin 4'-hydroxylation (CYP2C19): Lineweaver, Dixon and secondary reciprocal plots
Experimental: as §4, §5, §6, §7

CYP2D6 [10] = target: T3, CYP2D6; assay: Kinetic analysis (Ki, inhibition type) in human liver microsomes: bufuralol 1'-hydroxylation; details: pooled human liver microsomes
Experimental: as §4, §5, §6, §7

CYP2A6 = target: T6, CYP2A6 (Homo sapiens, UniProt P11509); assay: Cocktail probe assay in pooled human liver microsomes: coumarin 7-hydroxylation (IC50); details: for IC50, coumarin 7-hydroxylation (CYP2A6): pooled human liver microsomes, 2.5 μM coumarin
T6 construct: pooled human liver microsomes (0.25 mg/mL); tissue BD Gentest Co. H161; host or cells: pooled human liver microsomes
T6 sequence (P11509 1-494): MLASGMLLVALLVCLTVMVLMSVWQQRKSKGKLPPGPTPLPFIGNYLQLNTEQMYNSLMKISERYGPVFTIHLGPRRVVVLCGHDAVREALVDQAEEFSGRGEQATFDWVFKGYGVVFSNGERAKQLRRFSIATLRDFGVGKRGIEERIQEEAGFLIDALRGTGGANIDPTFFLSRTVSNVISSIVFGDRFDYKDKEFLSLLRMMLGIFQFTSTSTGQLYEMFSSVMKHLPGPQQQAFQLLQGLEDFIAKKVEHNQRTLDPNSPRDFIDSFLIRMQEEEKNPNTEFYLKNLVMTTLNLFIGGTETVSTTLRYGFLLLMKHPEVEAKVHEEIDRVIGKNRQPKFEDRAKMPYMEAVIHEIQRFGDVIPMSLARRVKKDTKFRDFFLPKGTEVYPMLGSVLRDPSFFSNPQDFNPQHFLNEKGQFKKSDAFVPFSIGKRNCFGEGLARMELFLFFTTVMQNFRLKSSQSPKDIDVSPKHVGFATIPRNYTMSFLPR
Experimental: as §1, §2, §6, §7

[11] = with 30 min preincubation in presence of NADPH
[12] = Lineweaver, Dixon and secondary reciprocal plots

T2 sequence (P11712 whole entry): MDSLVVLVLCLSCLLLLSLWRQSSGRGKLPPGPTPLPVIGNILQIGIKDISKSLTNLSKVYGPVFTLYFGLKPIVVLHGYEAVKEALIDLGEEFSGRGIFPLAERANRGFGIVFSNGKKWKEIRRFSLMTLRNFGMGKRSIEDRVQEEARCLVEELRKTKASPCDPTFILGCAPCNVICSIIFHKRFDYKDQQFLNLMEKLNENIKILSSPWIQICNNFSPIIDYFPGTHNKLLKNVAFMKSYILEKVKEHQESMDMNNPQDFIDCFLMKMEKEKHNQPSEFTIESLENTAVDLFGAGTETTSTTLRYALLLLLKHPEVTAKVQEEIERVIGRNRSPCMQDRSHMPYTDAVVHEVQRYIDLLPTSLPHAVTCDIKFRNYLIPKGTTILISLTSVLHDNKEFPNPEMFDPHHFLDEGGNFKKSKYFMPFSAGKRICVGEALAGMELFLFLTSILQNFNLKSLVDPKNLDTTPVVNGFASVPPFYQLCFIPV
T3 sequence (P10635 whole entry): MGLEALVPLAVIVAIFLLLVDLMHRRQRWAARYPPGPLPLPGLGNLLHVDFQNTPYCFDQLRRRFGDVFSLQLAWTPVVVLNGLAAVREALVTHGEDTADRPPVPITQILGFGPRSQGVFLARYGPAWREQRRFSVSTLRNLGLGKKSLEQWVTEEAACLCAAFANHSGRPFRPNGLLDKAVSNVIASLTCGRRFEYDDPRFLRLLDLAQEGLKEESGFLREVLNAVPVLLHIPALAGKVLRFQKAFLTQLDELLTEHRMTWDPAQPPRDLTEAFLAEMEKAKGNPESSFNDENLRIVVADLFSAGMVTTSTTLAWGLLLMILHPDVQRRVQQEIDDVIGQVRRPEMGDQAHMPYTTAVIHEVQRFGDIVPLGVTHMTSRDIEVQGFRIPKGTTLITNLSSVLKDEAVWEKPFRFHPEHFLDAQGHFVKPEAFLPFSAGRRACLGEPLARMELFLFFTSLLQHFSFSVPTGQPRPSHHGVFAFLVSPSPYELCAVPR
T4 sequence (P33261 whole entry): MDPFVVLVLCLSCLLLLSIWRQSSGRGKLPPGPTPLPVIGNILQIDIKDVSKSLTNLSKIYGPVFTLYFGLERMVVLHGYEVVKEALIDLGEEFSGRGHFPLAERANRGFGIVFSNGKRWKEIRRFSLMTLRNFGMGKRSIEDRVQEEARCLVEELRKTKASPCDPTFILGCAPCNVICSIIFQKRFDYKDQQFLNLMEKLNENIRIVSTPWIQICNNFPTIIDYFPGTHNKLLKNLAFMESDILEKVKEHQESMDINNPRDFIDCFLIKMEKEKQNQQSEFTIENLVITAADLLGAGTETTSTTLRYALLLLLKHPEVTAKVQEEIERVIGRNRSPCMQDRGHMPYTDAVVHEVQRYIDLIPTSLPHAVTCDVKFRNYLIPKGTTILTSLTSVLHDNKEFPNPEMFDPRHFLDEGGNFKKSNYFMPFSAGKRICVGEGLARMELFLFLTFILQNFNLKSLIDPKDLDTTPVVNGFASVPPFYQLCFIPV

Compound: COc1ccc(-c2cc(=O)c3c(O)c(OC)c(O)cc3o2)cc1OC [eupatilin, 2-(3,4-dimethoxyphenyl)-5,7-dihydroxy-6-methoxychromen-4-one]
- IC50 (CYP1A2 [1]; no preincubation): 9.4 ± 1.5 µM
- IC50 (CYP1A2 [1]; [11]): 11.8 ± 1.3 µM
- Ki (CYP2C9 [2]; 1-50 μM diclofenac): 1.6 ± 0.17 µM
- Inhibition type, diclofenac 4-hydroxylation (CYP2C9) (CYP2C9 [2]; [12]): mixed
- IC50 (CYP2D6 [3]; no preincubation): 58.7 ± 7.6 µM
- IC50 (CYP2D6 [3]; [11]): 79.1 ± 7.5 µM
- IC50 (CYP2C9 [4]; no preincubation): 4.1 ± 0.49 µM
- IC50 (CYP2C9 [4]; [11]): 4.9 ± 0.91 µM
- IC50 (CYP2C19 [5]; no preincubation): 48.1 ± 12 µM
- IC50 (CYP2C19 [5]; [11]): 57.7 ± 16.3 µM
- Ki (CYP2C8 [6]; 0.5-5 μM amodiaquine): 102 ± 8.9 µM
- Inhibition type, amodiaquine N-deethylation (CYP2C8) (CYP2C8 [6]; [12]): competitive
- Ki (CYP1A2 [7]; 10-100 μM phenacetin): 2.3 ± 0.18 µM
- Inhibition type, phenacetin O-deethylation (CYP1A2) (CYP1A2 [7]; [12]): competitive
- Inhibition of CYP3A4-catalyzed midazolam 1'-hydroxylation at the highest concentration tested (CYP3A; 100 μM, human liver microsomes): negligible inhibition
- IC50, midazolam 1'-hydroxylation (CYP3A) (CYP3A; no preincubation): No inhibition
- IC50, midazolam 1'-hydroxylation (CYP3A) (CYP3A; [11]): No inhibition
- IC50 (CYP2C8 [8]): > 100 µM
- Ki (CYP2C19 [9]; 10-100 μM [S]-mephenytoin): 28.7 ± 3.6 µM
- Inhibition type, S-mephenytoin 4'-hydroxylation (CYP2C19) (CYP2C19 [9]): mixed
- Inhibition type, S-mephenytoin 4'-hydroxylation (CYP2C19) (CYP2C19 [9]; listed as Eupatilin): mixed-type
- Ki (CYP2D6 [10]; 0.5-5 μM bufuralol): 94.6 ± 5.8 µM
- Inhibition type, bufuralol 1'-hydroxylation (CYP2D6) (CYP2D6 [10]; [12]): competitive
- Inhibition of CYP2A6-catalyzed coumarin 7-hydroxylation at the highest concentration tested (CYP2A6; 100 μM, human liver microsomes): negligible inhibition
- IC50, coumarin 7-hydroxylation (CYP2A6) (CYP2A6; no preincubation): No inhibition
- IC50, coumarin 7-hydroxylation (CYP2A6) (CYP2A6; [11]): No inhibition
